Assay results taken from US12281122B1, “PI3K inhibitors” (Cogent Biosciences, Inc., priority 2023, dated 2025).
pIC50: −log10 of the molar value.

Columns and labels:
PI3Kα = PI3Kα (Homo sapiens, UniProt P42336); assay: PI3Kα enzyme assay (Transcreener ADP2 TR-FRET Red Assay); assay type: biochemical; details: purified recombinant full-length protein; 2 hours pre-incubation with compound; read-out: PI3Kα WT IC50
Description: (§1) Activity against PI3Kα and PI3Kα H1047R enzymes were determined in biochemical assays using purified recombinant full-length proteins with the Transcreener ADP^2 TR-FRET Red Assay from Bellbrook Labs. (Catalogue number 3011-10K). Test compounds were dissolved in DMSO and were tested in 11 point 1:3 serial dilutions, typical final concentration range from 50,000 nM to 0.85 nM. Enzymes were pre-incubated with compounds for 2 hours at room temperature prior to initiating the reactions. Assays were initiated with a 2×ATP/PI(4,5)P2 diC8 substrate mixture. After 60 minutes at room temperature, the reactions were quenched with detection reagent and incubated for an additional 60 minutes at room temperature. The plates were read using a multimode reader and the emission ratio of 665 nm to 615 nm was determined. This ratio was converted to percent of control (POC). [1-(high control-sample signal)/(high control-low control)]*100. Wells without compound were used to determine high control values and wells without enzyme were used to determine low control values. The POC values were fit using a four-parameter logistic model and the value where the fit curve was equal to 50 POC was reported as the IC50 using the Signals VitroVivo software package (PerkinElmer). Final assay conditions were: 40 mM HEPES pH 7.5, 20 mM NaCl, 25 mM MgCl2, 0.01% Triton X-100. The enzyme source, catalogue number, final enzyme concentration, and final ATP and PI(4,5)P2 diC8 concentration can be found in the table E10 below.

PI3Kα H1047R = PI3Kα H1047R (Homo sapiens, UniProt P42336, H1047R); assay: PI3Kα H1047R enzyme assay (Transcreener ADP2 TR-FRET Red Assay); assay type: biochemical; details: purified recombinant full-length protein; 2 hours pre-incubation with compound
Description: as §1

[1] = system: T47D (PI3Kα-H1047R) cell line; assay: HTRF phospho-AKT(S473) cell assay in T47D cells; assay type: cell-based, human
Method in brief: (§2)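 T47D (PI3Kα-H1047R; RPMI, 10% FBS, insulin) and SKBR3 (wild-type PI3Kα; McCoy's 5A, 10% FBS) cells treated 2 h at 37 °C with 12-point 1:3 dilutions, top 5 μM and 10 μM respectively, ≤0.5% DMSO. SKBR3 stimulated with 70 ng/ml PDGF-BB for the last 15 min; lysate pAKT(S473) by HTRF, IC50 from curves.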

[2] = system: SKBR3 (PI3Kα-Wild Type) cell line; assay: HTRF phospho-AKT(S473) cell assay in SKBR3 cells; assay type: cell-based, human
Method in brief: as §2

[3] = Homo sapiens; T47D (PI3Kα-H1047R) cells, HTRF phospho-AKT(S473), 2 hours compound incubation
[4] = Homo sapiens, SK-BR-3; SKBR3 (PI3Kα-Wild Type) cells, HTRF phospho-AKT(S473), 2 hours compound incubation, PDGF-BB stimulated
[5] = Homo sapiens; HTRF phospho-AKT(S473), T47D (PI3Kα-H1047R) cells, 2 hours compound incubation
[6] = Homo sapiens, SK-BR-3; HTRF phospho-AKT(S473), SKBR3 (PI3Kα-Wild Type) cells, 2 hours compound incubation, PDGF-BB stimulated

Sequence of PI3Kα (P42336 whole entry): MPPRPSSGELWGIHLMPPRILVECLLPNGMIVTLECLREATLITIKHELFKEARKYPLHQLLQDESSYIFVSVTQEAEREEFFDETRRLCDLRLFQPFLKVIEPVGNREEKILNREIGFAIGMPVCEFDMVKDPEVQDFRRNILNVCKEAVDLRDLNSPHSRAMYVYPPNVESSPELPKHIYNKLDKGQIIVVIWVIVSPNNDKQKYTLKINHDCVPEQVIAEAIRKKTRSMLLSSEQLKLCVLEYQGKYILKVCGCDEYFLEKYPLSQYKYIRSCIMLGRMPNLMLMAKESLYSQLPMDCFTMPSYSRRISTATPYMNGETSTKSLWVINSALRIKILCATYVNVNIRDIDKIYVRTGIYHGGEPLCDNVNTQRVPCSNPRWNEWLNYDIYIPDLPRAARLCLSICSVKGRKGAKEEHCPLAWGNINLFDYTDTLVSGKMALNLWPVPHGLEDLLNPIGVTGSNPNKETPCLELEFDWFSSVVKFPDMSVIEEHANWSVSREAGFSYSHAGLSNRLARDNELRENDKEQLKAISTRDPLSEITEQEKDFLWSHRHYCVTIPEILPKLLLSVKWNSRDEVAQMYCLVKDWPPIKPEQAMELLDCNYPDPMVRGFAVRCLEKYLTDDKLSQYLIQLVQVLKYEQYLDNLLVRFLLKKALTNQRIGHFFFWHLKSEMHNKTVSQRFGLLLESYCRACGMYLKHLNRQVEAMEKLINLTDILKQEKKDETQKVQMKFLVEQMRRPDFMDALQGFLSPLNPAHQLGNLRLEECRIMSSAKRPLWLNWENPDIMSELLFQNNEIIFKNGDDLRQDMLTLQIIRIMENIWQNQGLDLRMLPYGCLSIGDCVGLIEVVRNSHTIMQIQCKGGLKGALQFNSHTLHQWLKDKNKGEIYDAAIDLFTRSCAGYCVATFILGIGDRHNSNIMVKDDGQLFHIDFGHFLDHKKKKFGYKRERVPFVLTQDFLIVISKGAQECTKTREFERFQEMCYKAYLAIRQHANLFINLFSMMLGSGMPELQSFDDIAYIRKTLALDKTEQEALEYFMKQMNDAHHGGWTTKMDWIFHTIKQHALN
Sequence of PI3Kα (P27986 2-724 partner): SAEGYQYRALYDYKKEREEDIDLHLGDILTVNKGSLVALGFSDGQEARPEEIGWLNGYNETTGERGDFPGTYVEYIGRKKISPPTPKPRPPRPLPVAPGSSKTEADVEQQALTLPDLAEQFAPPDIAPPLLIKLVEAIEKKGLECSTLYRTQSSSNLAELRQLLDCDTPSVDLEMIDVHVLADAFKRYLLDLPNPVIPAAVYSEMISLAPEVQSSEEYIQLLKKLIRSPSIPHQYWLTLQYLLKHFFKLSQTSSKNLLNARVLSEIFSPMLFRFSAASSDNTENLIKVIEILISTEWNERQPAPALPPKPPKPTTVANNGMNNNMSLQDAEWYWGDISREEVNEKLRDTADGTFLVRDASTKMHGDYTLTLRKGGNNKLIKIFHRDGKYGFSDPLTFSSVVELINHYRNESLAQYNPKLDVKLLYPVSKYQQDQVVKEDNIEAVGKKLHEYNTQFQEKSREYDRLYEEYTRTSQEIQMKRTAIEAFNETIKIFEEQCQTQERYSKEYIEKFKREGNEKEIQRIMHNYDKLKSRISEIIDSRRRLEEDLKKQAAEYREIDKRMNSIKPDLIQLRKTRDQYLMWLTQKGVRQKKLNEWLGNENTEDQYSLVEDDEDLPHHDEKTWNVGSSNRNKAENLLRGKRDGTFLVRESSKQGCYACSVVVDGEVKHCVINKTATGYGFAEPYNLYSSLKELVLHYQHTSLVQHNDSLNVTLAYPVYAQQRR
Sequence of PI3Kα H1047R (P42336 whole entry H1047R): as the sequence (P42336 whole entry) above, with H1047R counted along it
Sequence of PI3Kα H1047R (P27986 2-724 partner): as the sequence (P27986 2-724 partner) above

pIC50 (PI3Kα) | pIC50 (PI3Kα H1047R) | pIC50 [1, 3] | pIC50 [2, 4] | pIC50 [1, 5] | pIC50 [2, 6] | Structure (SMILES)
≤ 6.00 | ≤ 6.00 | – | – | – | – | Cc1cc([C@@H](C)Nc2ccc(Cl)nc2C(=O)NS(C)(=O)=O)c2nc(N(C)CC3(C(F)(F)F)CC3)n(C)c(=O)c2c1 [Compound 43, (R)-6-chloro-3-((1-(3,6-dimethyl-2-(methyl((1-(trifluoromethyl)cyclopropyl)methyl)amino)-4-oxo-3,4-dihydroquinazolin-8-yl)ethyl)amino)-N-(methylsulfonyl) picolinamide]
≤ 6.00 | 6.30 to 6.60 | 6.30 to 6.60 | ≤ 5.30 | – | – | Cc1cc([C@@H](C)Nc2ccc(Cl)nc2C(=O)NS(C)(=O)=O)c2nc(NC3CCCC3)n(C)c(=O)c2c1 [Compound 11, (R)-6-chloro-3-((1-(2-(cyclopentylamino)-3,6-dimethyl-4-oxo-3,4-dihydroquinazolin-8-yl)ethyl)amino)-N-(methylsulfonyl) picolinamide]
≤ 6.00 | ≤ 6.00 | 5.30 to 6.00 | ≤ 5.30 | – | – | Cc1cc([C@@H](C)Nc2ccc(Cl)nc2C(=O)NS(C)(=O)=O)c2nc(NC(C)(C)C)n(C)c(=O)c2c1 [Compound 7, (R)-3-((1-(2-(tert-butylamino)-3,6-dimethyl-4-oxo-3,4-dihydroquinazolin-8-yl)ethyl)amino)-6-chloro-N-(methylsulfonyl) picolinamide]
≤ 6.00 | 6.30 to 6.60 | 6.30 to 6.60 | 5.30 to 6.00 | – | – | Cc1cc([C@@H](C)Nc2ccc(Cl)nc2C(=O)NS(C)(=O)=O)c2nc(N(C)CC3CC3)n(C)c(=O)c2c1 [Compound 14, (R)-6-chloro-3-((1-(2-((cyclopropylmethyl) (methyl)amino)-3,6-dimethyl-4-oxo-3,4-dihydroquinazolin-8-yl)ethyl)amino)-N-(methylsulfonyl) picolinamide]
≤ 6.00 | > 7.00 | 6.00 to 6.30 | 5.30 to 6.00 | – | – | C[C@@H](Nc1ccc(Cl)nc1C(=O)NS(C)(=O)=O)c1cccc2c(=O)n(C)c(N3Cc4ccc(F)cc4C3)nc12 [Compound 23, (R)-6-chloro-3-((1-(2-(5-fluoroisoindolin-2-yl)-3-methyl-4-oxo-3,4-dihydroquinazolin-8-yl)ethyl)amino)-N-(methylsulfonyl) picolinamide]
≤ 6.00 | ≤ 6.00 | 5.30 to 6.00 | 5.30 to 6.00 | – | – | Cc1cc([C@@H](C)Nc2ccc(Cl)cc2C(=O)NS(C)(=O)=O)c2nc(N3Cc4ccc(F)cc4C3)n(C)c(=O)c2c1 [Compound 64, (R)-5-chloro-2-((1-(2-(5-fluoro-isoindolin-2-yl)-3,6-dimethyl-4-oxo-3,4-dihydroquinazolin-8-yl)ethyl)amino)-N-(methylsulfonyl) benzamide]
≤ 6.00 | ≤ 6.00 | 5.30 to 6.00 | 5.30 to 6.00 | – | – | Cc1cc([C@@H](C)Nc2ccc(F)cc2C(=O)NS(C)(=O)=O)c2nc(N3Cc4ccc(F)cc4C3)n(C)c(=O)c2c1 [Compound 63, (R)-5-fluoro-2-((1-(2-(5-fluoro-isoindolin-2-yl)-3,6-dimethyl-4-oxo-3,4-dihydroquinazolin-8-yl)ethyl)amino)-N-(methylsulfonyl) benzamide]
– | – | > 6.60 | 5.30 to 6.00 | – | – | Cc1cc([C@@H](C)Nc2ccc(Cl)nc2C(=O)NS(C)(=O)=O)c2nc(N3CCN(c4ccccn4)CC3)n(C)c(=O)c2c1 [Compound 182, (R)-6-chloro-3-((1-(3,6-dimethyl-4-oxo-2-(4-(pyridin-2-yl)piperazin-1-yl)-3,4-dihydroquinazolin-8-yl)ethyl)amino)-N-(methylsulfonyl) picolinamide]
– | – | > 6.60 | 5.30 to 6.00 | – | – | Cc1cc([C@@H](C)Nc2ccc(Cl)nc2C(=O)NS(C)(=O)=O)c2nc(N3CCc4c(cnn4-c4ccccc4)C3)n(C)c(=O)c2c1 [Compound 195, (R)-6-chloro-3-((1-(3,6-dimethyl-4-oxo-2-(1-phenyl-1,4,6,7-tetrahydro-5H-pyrazolo[4,3-c]pyridin-5-yl)-3,4-dihydroquinazolin-8-yl)ethyl)amino)-N-(methylsulfonyl) picolinamide]
– | – | – | – | 5.30 to 6.00 | ≤ 5.30 | Cc1cc([C@@H](C)Nc2ccc(Cl)nc2C(=O)NS(C)(=O)=O)c2nc(N3CCC[C@@H](c4ncc(Cl)cn4)C3)n(C)c(=O)c2c1 (relative stereo) [Compound 588, 6-chloro-3-(((R)-1-(2-((R*)-3-(5-chloropyrimidin-2-yl)piperidin-1-yl)-3,6-dimethyl-4-oxo-3,4-dihydroquinazolin-8-yl)ethyl)amino)-N-(methylsulfonyl) picolinamide]
– | – | – | – | 6.30 to 6.60 | 5.30 to 6.00 | Cc1cc([C@@H](C)Nc2ccc(Cl)nc2C(=O)NS(C)(=O)=O)c2nc(N3C[C@@H]4[C@H](C3)[C@H]4c3cnc(C4CC4)nc3)n(C)c(=O)c2c1 [Compound 485, 6-chloro-3-(((R)-1-(2-((1R,5S,6S)-6-(2-cyclopropylpyrimidin-5-yl)-3-azabicyclo[3.1.0]hexan-3-yl)-3,6-dimethyl-4-oxo-3,4-dihydroquinazolin-8-yl)ethyl)amino)-N-(methylsulfonyl) picolinamide]
– | – | > 6.60 | 5.30 to 6.00 | – | – | Cc1cc([C@@H](C)Nc2ccc(Cl)nc2C(=O)NS(C)(=O)=O)c2nc(N3C[C@@H]4[C@H](C3)[C@H]4c3ccn(C)n3)n(C)c(=O)c2c1 [Compound 295, 6-chloro-3-(((R)-1-(3,6-dimethyl-2-((1R,5S,6R)-6-(1-methyl-1H-pyrazol-3-yl)-3-azabicyclo[3.1.0]hexan-3-yl)-4-oxo-3,4-dihydroquinazolin-8-yl)ethyl)amino)-N-(methylsulfonyl) picolinamide]
– | – | > 6.60 | 5.30 to 6.00 | – | – | Cc1cc([C@@H](C)Nc2ccc(Cl)nc2C(=O)NS(C)(=O)=O)c2nc(N3CCC(c4ccnc(C)n4)CC3)n(C)c(=O)c2c1 [Compound 260, (R)-6-chloro-3-((1-(3,6-dimethyl-2-(4-(2-methylpyrimidin-4-yl)piperidin-1-yl)-4-oxo-3,4-dihydroquinazolin-8-yl)ethyl)amino)-N-(methylsulfonyl) picolinamide]
– | – | – | – | 6.30 to 6.60 | 5.30 to 6.00 | Cc1cc([C@@H](C)Nc2ccc(Cl)nc2C(=O)NS(C)(=O)=O)c2nc(N3CCC[C@@H](c4cnccn4)C3)n(C)c(=O)c2c1 (relative stereo) [Compound 618, 6-chloro-3-(((R)-1-(3,6-dimethyl-4-oxo-2-((R*)-3-(pyrazin-2-yl)piperidin-1-yl)-3,4-dihydroquinazolin-8-yl)ethyl)amino)-N-(methylsulfonyl) picolinamide]
– | – | > 6.60 | 5.30 to 6.00 | – | – | Cc1cc([C@@H](C)Nc2ccc(Cl)nc2C(=O)NS(C)(=O)=O)c2nc(N3CCc4nn(C5COC5)cc4C3)n(C)c(=O)c2c1 [Compound 334, (R)-6-chloro-3-((1-(3,6-dimethyl-2-(2-(oxetan-3-yl)-2,4,6,7-tetrahydro-5H-pyrazolo[4,3-c]pyridin-5-yl)-4-oxo-3,4-dihydroquinazolin-8-yl)ethyl)amino)-N-(methylsulfonyl) picolinamide]
– | – | – | – | 6.30 to 6.60 | 5.30 to 6.00 | [2H]C([2H])([2H])n1ccc([C@H]2[C@@H]3CN(c4nc5c([C@@H](C)Nc6ccc(Cl)nc6C(=O)NS(C)(=O)=O)cc(C)cc5c(=O)n4C4CC4)C[C@@H]32)n1 [Compound 734, 6-chloro-3-(((R)-1-(3-cyclopropyl-6-methyl-2-((1R,5S,6R)-6-(1-(methyl-d3)-1H-pyrazol-3-yl)-3-azabicyclo[3.1.0]hexan-3-yl)-4-oxo-3,4-dihydroquinazolin-8-yl)ethyl)amino)-N-(methylsulfonyl) picolinamide]
